# Measured values: PMC7196072, “Cryo-EM structures of PAC1 receptor reveal ligand binding mechanism” (Cell Research, 2020)
# Where two headings read alike, the source gives them in different places.
# Assays:
# [1] = cited from earlier work
# Excerpt: As the major sensory and vasodilator neuropeptides, PACAP38 and VIP are involved in parasympathetic communication with the cranial vasculature. Abnormal activation and sensitization of the central trigeminovascular pain pathway mediate migraine and the release of these peptides.[5]
# [2] = tested on: PAC1R construct used in the cryo-EM studies; assay type: cell-based, human; settings: cAMP, BacMam CHO-K1, pH 7.4, 30 min 37 °C, average ± SD, N=3
# Protocol: WT PAC1R and mutations used in the functional assay were cloned into pJIF1.1 for BacMam virus generation.
# CHO-K1 cells were cultured in DMEM supplemented with 10% FBS and infected with BacMam viruses with a MOI of 100. 24 h after infection, cells were collected for membrane preparation or functional assay.
# Activation of WT PAC1R and mutants was measured based on intracellular cAMP levels using Lance Ultra cAMP kit (PerkinElmer) according to the manufacturer’s protocol. […] Then 5 µL of 4× Eu-cAMP and 5 µL of 4× Ulight-Anti-cAMP working solutions were added to each well and incubated at room temperature for 60 min before reading with Envision (PerkinElmer). All signals (ratio of 665 nm/615 nm) were fit with a sigmoidal dose-response model using GraphPad Prism 7.
# Both the average and S.D.
# are calculated based 3 rounds of independent assays in 3 different days (N=3), and on each
# day, duplicates were run for each dose on dose response curves.
# # Ratio to WT is calculated as EC50 of mutation to EC50 of WT.
# † The best-fit value of pEC50 from 3 different assays was used to calculate p value in T-test,
# between WT and each mutation, with 2-tailed and equal variance (homoscedastic).
Compound,"induction of delayed migraine-like headaches ([1]; in vivo, iv)",pEC50 [2],induction of delayed migraine-like headaches ([1]; intravenous infusion)
"CC[C@H](C)[C@H](NC(=O)CNC(=O)[C@H](CC(=O)O)NC(=O)[C@H](CO)NC(=O)[C@@H](N)Cc1cnc[nH]1)C(=O)N[C@@H](Cc1ccccc1)C(=O)N[C@H](C(=O)N[C@@H](CC(=O)O)C(=O)N[C@@H](CO)C(=O)N[C@@H](Cc1ccc(O)cc1)C(=O)N[C@@H](CO)C(=O)N[C@@H](CCCNC(=N)N)C(=O)N[C@@H](Cc1ccc(O)cc1)C(=O)N[C@@H](CCCNC(=N)N)C(=O)N[C@@H](CCCCN)C(=O)N[C@@H](CCC(N)=O)C(=O)N[C@@H](CCSC)C(=O)N[C@@H](C)C(=O)N[C@H](C(=O)N[C@@H](CCCCN)C(=O)N[C@@H](CCCCN)C(=O)N[C@@H](Cc1ccc(O)cc1)C(=O)N[C@@H](CC(C)C)C(=O)N[C@@H](C)C(=O)N[C@@H](C)C(=O)N[C@H](C(=O)N[C@@H](CC(C)C)C(=O)NCC(=O)N[C@@H](CCCCN)C(=O)N[C@@H](CCCNC(=N)N)C(=O)N[C@@H](Cc1ccc(O)cc1)C(=O)N[C@@H](CCCCN)C(=O)N[C@@H](CCC(N)=O)C(=O)N[C@@H](CCCNC(=N)N)C(=O)N[C@H](C(=O)N[C@@H](CCCCN)C(=O)N[C@@H](CC(N)=O)C(=O)N[C@@H](CCCCN)C(N)=O)C(C)C)C(C)C)C(C)C)[C@@H](C)O [PACAP38, pituitary adenylate cyclase-activating polypeptide]",induces delayed migraine-like headaches,9.71 ± 0.21,–
vasoactive intestinal polypeptide [VIP],–,–,but not VIP induces delayed migraine-like headaches
